Experimental data reported in patent US9586986B2, “Substituted 7-deazapurine ribonucleosides for therapeutic uses” (Institute of Organic Chemistry and Biochemistry ASCR, v.v.i., priority 2014, dated 2017).
Where two headings read alike, the source gives them in different places.

Key:
Type in all cases: cell-based
K562 = assay: Cytostatic/cytotoxic MTT assay, K562; conditions: Homo sapiens, read-out: MTT, IC50 K562
From the text: (§1) Unless otherwise stated, all cells were purchased from the […] (ATCC). The CCRF-CEM line is derived from T lymphoblastic leukemia, evincing high chemosenzitivity, K562 represent cells from a […] patient sample with bcr-abl translocation, HCT116 is colorectal tumor cell line and its p53 gene knock-down counterpart (HCT116p53−/−, Horizon Discovery, UK) is a model of human cancers with p53 inactivation frequently associated with poor prognosis, A549 cell line is lung adenocarcinoma. The daunorubicin resistant subline of CCRF-CEM cells (CEM-DNR bulk) and paclitaxel resistant subline K562-TAX were selected in our laboratory by cultivation of maternal cell lines in increasing concentrations of daunorubicine or paclitaxel, respectively. The CEM-DNR cells overexpress mrp-1 and mdr-1 genes, while K562-TAX cells overexpress mdr-1 only. Both proteins belong to the family of ABC transporters and are involved in the primary and/or acquired multidrug resistance phenomenon (ref.: Gottesman, M. M.; Fojo, T.; Bates, S. E. Multidrug resistance in cancer: role of ATP-dependent transporters. Nat. Rev. Cancer. 2002, 2, 48-58. (b) Noskova, V.; Dzubak, P.; Kuzmina, G.; Ludkova, A.; Stehlik, D.; Trojanec, R.; Janostakova, A.; Korinkova, G.; Mihal, V.; Hajduch, M. In vitro chemoresistance profile and expression/function of MDR associated proteins in resistant cell lines derived from CCRF-CEM, K562, A549 and MDA MB 231 parental cells. Neoplasma 2002, 49, 418-425). Non-malignant MRC-5 and BJ cells, derived from normal human fibroblasts, were used as controls. The cells were maintained in Nunc/Corning 80 cm^2 plastic tissue culture flasks and cultured in cell culture medium (DMEM/RPMI 1640 with 5 g/L glucose, 2 mM glutamine, 100 U/mL penicillin, 100 µg/mL streptomycin, 10% fetal calf serum, and NaHCO3). Cell suspensions were prepared and diluted according to the particular cell type and the expected target cell density (25,000-30,000 cells/well based on cell growth characteristics). Cells were added by pipette (80 L) into 96-well microtiter plates. Inoculates were allowed a pre-incubation period of 24 h at 37° C. and 5% CO2 for stabilization. Four-fold dilutions, in 20-L aliquots, of the intended test concentration were added to the microtiter plate walls at time zero. All test compound concentrations were examined in duplicate. Incubation of the cells with the test compounds lasted for 72 h at 37° C., in a 5% CO2 atmosphere at 100% humidity. At the end of the incubation period, the cells were assayed using MTT. Aliquots (10 L) of the MTT stock solution (5 mg/ml) were pipetted into each well and incubated for another 1-4 h. After this incubation period the formazan produced was dissolved by addition of 100 µL/well of 10% aq SDS (pH 5.5), followed by a further incubation at 37° C. overnight. The optical density was measured at 540 nm. The IC50 value, the drug concentration inhibiting the cell growth by 50%, was calculated from appropriate dose-response curves.
(§2) In vitro cytotoxic/cytostatic activity final nucleosides 1-5 was initially evaluated against […] cell lines derived from human solid tumors including lung (A549 cells) and colon (HCT116 and HCT116p53−/−) carcinomas, as well as leukemia cell lines (CCRF-CEM, CEM-DNR, K562 and K562-TAX) and, for comparison, non-malignant BJ and MRC-5 fibroblasts. Concentrations inhibiting the cell growth by 50% (IC50) were determined using a quantitative metabolic staining with 3-(4,5-dimethylthiazol-2-yl)-2,5-diphenyltetrazolium bromide (MTT) (ref.: Denizot, F.; Lang, R. Rapid colorimetric assay for cell growth and survival: Modifications to the tetrazolium dye procedure giving improved sensitivity and reliability. J. Immunol. Meth. 1986, 89, 271-277) following a 3-day treatment.

K562-TAX = assay: Cytostatic/cytotoxic MTT assay, K562-TAX; conditions: Homo sapiens, 72 h, read-out: MTT, IC50 K562-TAX
From the text: as §1, §2
(§3) Multidrug resistance is a major therapeutic problem in cancer chemotherapy. […]

HCT116 = assay: Cytostatic/cytotoxic MTT assay, HCT116; conditions: Homo sapiens, read-out: MTT, IC50 HCT116
From the text: as §1, §2, §3

HCT116p53-/- = assay: Cytostatic/cytotoxic MTT assay, HCT116p53-/-; conditions: Homo sapiens, read-out: MTT, IC50 HCT116 p53-/-
From the text: as §1, §2, §3

HeLa S3 = assay: XTT cytotoxicity assay, HeLa S3; conditions: Homo sapiens, read-out: XTT, IC50 HeLa S3
Protocol: HL-60, Hela S3 and HepG2 cell lines (ATCC) were grown in RPMI-1640 or DMEM medium supplemented with 10% fetal calf serum, […] of streptomycin, 200 U/mL of penicillin G and 4 mM glutamine in a humidified atmosphere containing 5% CO2 at 37° C. Sensitivity of these cell lines to the synthesized compounds was assessed with the use of XTT cell proliferation kit II (Roche Diagnostics GmbH, Mannheim, Germany) according to the manufacturer's instructions. Briefly, cells were seeded in a 96-well plate at a density of 10,000 cells per well (90 μL). After 24 h, 10 μL of the tested compounds were added to the culture media at desired concentration range and incubated for 72 h. After that 50 μL of the XTT solution was added (1 mg/mL XTT+0.383 mg/mL N-methyl dibenzopyrazine methyl sulfate). The absorbance was recorded at 495 nm following a 2 h-incubation with the dye. IC50 values were determined by non-linear regression method using GraphPad Prism version 5.00 for Windows (GraphPad Software, La Jolla, Calif., USA).
In addition, the anti-proliferative effect was tested against a human T-lymphoblastic leukemia line CCRF-CEM, promyelocytic leukemia HL-60 and cervical carcinoma HeLa S3 growing in liquid suspension. Cell viability was determined following a 3-day incubation using 2,3-bis-(2-methoxy-4-nitro-5-sulfophenyl)-2H-tetrazolium-5-carboxanilide (XTT) assay (ref.: Scudiero, D. A.; Shoemaker, R. H.; Paull, K. D.; Monks, A.; Tierney, S.; Nofziger, T. H.; Currens, M. J.; Seniff, D.; Boyd M. R. Evaluation of a Soluble Tetrazolium/Formazan Assay for Cell Growth and Drug Sensitivity in Culture Using Human and Other Tumor Cell Lines. Cancer Res. 1988, 48, 4827-4833).

[1] = test system: Huh-7 cells harboring replicon 2A; assay: Cytotoxicity in replicon 2A cells; conditions: HCV subtype 2A replicon
Protocol: Compounds were also tested in Huh-7 cells harboring sub-genomic reporter replicons derived from HCV subtypes 1B and 2A (ref.: Stuyver, L. J.; Whitaker, T.; McBrayer, T. R.; Hernandez-Santiago, B. I.; Lostia, S.; Tharnish, P. M.; Ramesh, M.; Chu, C. K.; Jordan, R.; Shi, J. X.; Rachakonda, S.; Watanabe, K. A.; Otto, M. J.; Schinazi, R. F. Antimicrob. Agents Chemother. 2003, 47, 244-254).

| Structure (SMILES) | IC50 (K562; K562, 72 h incubation) | IC50 (K562-TAX; paclitaxel resistant subline) | IC50 (HCT116; HCT-116, 72 h incubation) | IC50 (HCT116p53-/-; HCT-116, 72 h incubation) | IC50 (HeLa S3; HeLa S3, 72 h incubation) | CC50 [1] | IC50 (K562; K562, 72 h) | IC50 (K562-TAX) | IC50 (HCT116; HCT-116, 72 h) | IC50 (HCT116p53-/-; HCT-116, 72 h) | IC50 (HeLa S3; HeLa S3, 72 h) |
| --- | --- | --- | --- | --- | --- | --- | --- | --- | --- | --- | --- |
| Cc1ncnc2c1c(-c1ccoc1)cn2[C@@H]1O[C@H](CO)[C@@H](O)[C@H]1O [Compound 5b, 5-(Furan-3-yl)-4-methyl-7-(β-D-ribofuranosyl)-7H-pyrrolo[2,3-d]pyrimidine] | > 20 µM | > 20 µM | > 20 µM | > 20 µM | > 20 µM | > 44 µM |  |  |  |  |  |
| CSc1ncnc2c1ccn2[C@@H]1O[C@H](CO)[C@@H](O)[C@H]1O [RC2, reference compound] |  |  |  |  |  | > 44 µM | > 20 µM | 0.1 µM | > 20 µM | > 20 µM | 11.9 µM |
| COc1ncnc2c1c(-c1ccco1)cn2[C@@H]1O[C@H](CO)[C@@H](O)[C@H]1O [Compound 1a, 5-(Furan-2-yl)-4-methoxy-7-(β-D-ribofuranosyl)-7H-pyrrolo[2,3-d]pyrimidine] | 0.06 µM | 0.38 µM | 0.04 µM | 0.04 µM | 1.02 µM | > 44 µM |  |  |  |  |  |
| COc1ncnc2c1ccn2[C@@H]1O[C@H](CO)[C@@H](O)[C@H]1O [RC1, reference compound] | > 20 µM | > 20 µM | > 20 µM | > 20 µM | > 20 µM | > 44 µM |  |  |  |  |  |
| COc1ncnc2c1c(I)cn2[C@@H]1O[C@H](CO)[C@@H](O)[C@H]1O [Compound 1h, 5-iodo-4-methoxy-7-(β-D-ribofuranosyl)-7H-pyrrolo[2,3-d]pyrimidine, reference compound] | > 20 µM | 14.8 µM | > 20 µM | > 20 µM | 14.3 µM | > 44 µM |  |  |  |  |  |
| Cc1ncnc2c1ccn2[C@@H]1O[C@H](CO)[C@@H](O)[C@H]1O [RC5, 4-Methyl-7-(β-D-ribofuranosyl)-7H-pyrrolo[2,3-d]pyrimidine, reference compound] |  |  |  |  |  | 0.12 µM | 0.01 µM | 0.05 µM | 0.03 µM | 0.06 µM | 0.02 µM |
| CNc1ncnc2c1c(-c1ccccc1)cn2[C@@H]1O[C@H](CO)[C@@H](O)[C@H]1O [Compound 3e, 4-Methylamino-5-phenyl-7-(β-D-ribofuranosyl)-7H-pyrrolo[2,3-d]pyrimidine] | > 20 µM | > 20 µM | > 20 µM | > 100 µM | > 20 µM | > 44 µM |  |  |  |  |  |
| CSc1ncnc2c1c(-c1ccco1)cn2[C@@H]1O[C@H](CO)[C@@H](O)[C@H]1O [Compound 2a, 5-(Furan-2-yl)-4-methylsulfanyl-7-(β-D-ribofuranosyl)-7H-pyrrolo[2,3-d]pyrimidine] | 0.04 µM | 0.21 µM | 0.02 µM | 0.01 µM | 0.54 µM | > 44 µM |  |  |  |  |  |
| CNc1ncnc2c1ccn2[C@@H]1O[C@H](CO)[C@@H](O)[C@H]1O [RC3, reference compound] | > 20 µM | 0.92 µM | > 20 µM | > 20 µM | > 20 µM | > 44 µM |  |  |  |  |  |
| CSc1ncnc2c1c(-c1cccs1)cn2[C@@H]1O[C@H](CO)[C@@H](O)[C@H]1O [Compound 2c, 4-Methylsulfanyl-7-(β-D-ribofuranosyl)-5-(thiophen-2-yl)-7H-pyrrolo[2,3-d]pyrimidine] | 11.6 µM | > 20 µM | > 20 µM | > 20 µM | 1.96 µM | > 44 µM |  |  |  |  |  |
| Cc1ncnc2c1c(-c1ccccc1)cn2[C@@H]1O[C@H](CO)[C@@H](O)[C@H]1O [Compound 5e, 4-Methyl-5-phenyl-7-(β-D-ribofuranosyl)-7H-pyrrolo[2,3-d]pyrimidine] | > 20 µM | > 20 µM | > 100 µM | 95.3 µM | > 20 µM | > 44 µM |  |  |  |  |  |
| CN(C)c1ncnc2c1c(-c1ccccc1)cn2[C@@H]1O[C@H](CO)[C@@H](O)[C@H]1O [Compound 4e, 4-Dimethylamino-5-phenyl-7-(β-D-ribofuranosyl)-7H-pyrrolo[2,3-d]pyrimidine] | > 20 µM | > 20 µM | > 20 µM | > 20 µM | > 20 µM | > 44 µM |  |  |  |  |  |
| CSc1ncnc2c1c(I)cn2[C@@H]1O[C@H](CO)[C@@H](O)[C@H]1O [Compound 2h, 5-Iodo-4-methylsulfanyl-7-(β-D-ribofuranosyl)-7H-pyrrolo[2,3-d]pyrimidine] | 10.5 µM | 7.73 µM | > 20 µM | > 20 µM | 0.25 µM | > 44 µM |  |  |  |  |  |
| CN(C)c1ncnc2c1c(-c1cc3ccccc3o1)cn2[C@@H]1O[C@H](CO)[C@@H](O)[C@H]1O [Compound 4f, 5-(Benzofuran-2-yl)-4-dimethylamino-7-(β-D-ribofuranosyl)-7H-pyrrolo[2,3-d]pyrimidine] | > 20 µM | > 20 µM | > 20 µM | > 20 µM | > 20 µM | > 44 µM |  |  |  |  |  |
